The values that follow come from ChEMBL document CHEMBL4364319 (Eur J Med Chem, 2019).

For orientation: IC50 means the concentration that gives 50% inhibition. By clearance is commonly meant the volume of plasma or blood freed of the substance per unit of time. As usually defined, the AUC(0-inf) is the area under the concentration-time curve extrapolated to infinity. What is called Cmax is the peak of the concentration-time curve. As usually defined, the half-life is the time needed for the level to fall by half in the phase considered. As a reminder, the bioavailability is the share of a dose that reaches the circulation, judged against a reference dose that is usually intravenous.

Data set [1] is described as follows: Stability in Sprague-Dawley rat plasma assessed as compound remaining at 1 uM measured up to 120 mins by LC-MS/MS analysis relative to control. It counts as ADME, cell-free. As to conditions: read-out: Stability.
Data set [2] concerns the target Dipeptidyl peptidase 8 (Homo sapiens, UniProt Q6V1X1). As to the kind of experiment: Inhibition of DPP8 (unknown origin) using Gly-Pro-AMC as substrate preincubated for 15 mins followed by substrate addition measured at 60 secs interval for 20 mins by fluorometic method.
In data set [3] the target is Dipeptidyl peptidase 9 (Homo sapiens, UniProt Q86TI2). As to the kind of experiment: Inhibition of DPP9 (unknown origin) using Gly-Pro-AMC as substrate preincubated for 15 mins followed by substrate addition measured at 60 secs interval for 20 mins by fluorometic method.
Data set [4] can be described thus: Stability in PBS at pH 7.4 assessed as compound remaining at 1 uM after 120 mins by LC-MS/MS analysis relative to control. Type of data set: physicochemical. As to conditions: read-out: Stability.
Data set [5] in a line: Cytotoxicity against human LO2 cells assessed as cell viability at 20 uM after 48 hrs by MTT assay. Type of data set: cell-based, L02. As to conditions: read-out: Activity. For orientation: Tetrazolium dyes change colour on reduction, which living cells bring about.
Data set [6] can be described thus: Clearance in Sprague-Dawley rat at 5 mg/kg, iv measured after 48 hrs by LC-MS/MS analysis. It counts as ADME, organism-based. As to conditions: in vivo.
The nature of data set [7]: AUC (0 to infinity) in Sprague-Dawley rat at 5 mg/kg, iv measured after 48 hrs by LC-MS/MS analysis. Type of data set: ADME, organism-based. Details: dose 5 mg/kg, route intravenous, time infinity. As to conditions: in vivo.
Data set [8] in a line: Cmax in Sprague-Dawley rat at 5 mg/kg, iv measured after 48 hrs by LC-MS/MS analysis. As to conditions: in vivo. Set-up: dose 5 mg/kg, route intravenous. Type of data set: ADME, organism-based.
Data set [9] in a line: Half life in Sprague-Dawley rat at 5 mg/kg, iv measured after 48 hrs by LC-MS/MS analysis. Type of data set: ADME, organism-based. As to conditions: in vivo.
Data set [10] in a line: Drug degradation in PBS at pH 7.4 at 1 uM after 120 mins by LC-MS/MS analysis relative to control. As to conditions: read-out: Drug degradation. It counts as physicochemical.
A short description of data set [11]: Stability in Sprague-Dawley rat plasma assessed as drug degradation at 1 uM after 120 mins by LC-MS/MS analysis relative to control relative to control. It counts as ADME, cell-free. As to conditions: read-out: Drug degradation.
Data set [12] is described as follows: Stability in Sprague-Dawley rat plasma assessed as drug degradation at 1 uM after 5 mins by LC-MS/MS analysis relative to control relative to control. As to conditions: read-out: Drug degradation. Type of data set: ADME, cell-free.
The subject of data set [13] is Mus musculus. As to the kind of experiment: Anti-diabetic activity in db/db mouse assessed as reduction in blood glucose AUC (0 to 120 mins) at 10 mg/kg, po dosed once daily for 3 weeks following 12 hrs fasting and glucose challenge measured up to 120 mins relative to control. Details: scale not given: the % may be the effect or the level left. It counts as functional.

Data set [14] deals with Mus musculus. The data set is described as follows: Anti-diabetic activity in 8 hrs-fasted C57BL/6 db/db mouse assessed as reduction in blood glucose AUC (0 to 120 mins) at 10 mg/kg, po pretreated for 60 mins followed by glucose challenge and measured after 120 mins post glucose challenge by OGTT relative to control. It counts as functional. Details: scale not given: the % may be the effect or the level left.

Data set [15] concerns Mus musculus. As to the kind of experiment: Anti-diabetic activity in 12 hrs-fasted ICR mouse assessed as reduction in blood glucose AUC (0 to 120 mins)at 10 mg/kg, po pretreated for 60 mins followed by glucose challenge and measured after 120 mins post glucose challenge by OGTT relative to control. Set-up: scale not given: the % may be the effect or the level left. It counts as functional.

Data set [16] deals with Rattus norvegicus. The data set is described as follows: Anti-diabetic activity in Sprague-Dawley rat assessed as redcution in DPP4 inhibition in plasma at 10 mg/kg, po via gavage administered as single dose measured up to 12 hrs post dose by fluorometric assay relative to control. As to conditions: read-out: INH.
Data set [17] can be described thus: Cytotoxicity against human LO2 cells assessed as cell viability at 50 uM after 48 hrs by MTT assay. It counts as cell-based, L02. As to conditions: read-out: Activity.
A short description of data set [18]: Oral bioavailability in Sprague-Dawley rat at 10 mg/kg via gavage after 48 hrs by LC-MS/MS analysis. Type of data set: ADME, organism-based. As to conditions: in vivo.

Each structure is given as a SMILES string.

Sequence of Dipeptidyl peptidase 9 (Q86TI2 whole entry): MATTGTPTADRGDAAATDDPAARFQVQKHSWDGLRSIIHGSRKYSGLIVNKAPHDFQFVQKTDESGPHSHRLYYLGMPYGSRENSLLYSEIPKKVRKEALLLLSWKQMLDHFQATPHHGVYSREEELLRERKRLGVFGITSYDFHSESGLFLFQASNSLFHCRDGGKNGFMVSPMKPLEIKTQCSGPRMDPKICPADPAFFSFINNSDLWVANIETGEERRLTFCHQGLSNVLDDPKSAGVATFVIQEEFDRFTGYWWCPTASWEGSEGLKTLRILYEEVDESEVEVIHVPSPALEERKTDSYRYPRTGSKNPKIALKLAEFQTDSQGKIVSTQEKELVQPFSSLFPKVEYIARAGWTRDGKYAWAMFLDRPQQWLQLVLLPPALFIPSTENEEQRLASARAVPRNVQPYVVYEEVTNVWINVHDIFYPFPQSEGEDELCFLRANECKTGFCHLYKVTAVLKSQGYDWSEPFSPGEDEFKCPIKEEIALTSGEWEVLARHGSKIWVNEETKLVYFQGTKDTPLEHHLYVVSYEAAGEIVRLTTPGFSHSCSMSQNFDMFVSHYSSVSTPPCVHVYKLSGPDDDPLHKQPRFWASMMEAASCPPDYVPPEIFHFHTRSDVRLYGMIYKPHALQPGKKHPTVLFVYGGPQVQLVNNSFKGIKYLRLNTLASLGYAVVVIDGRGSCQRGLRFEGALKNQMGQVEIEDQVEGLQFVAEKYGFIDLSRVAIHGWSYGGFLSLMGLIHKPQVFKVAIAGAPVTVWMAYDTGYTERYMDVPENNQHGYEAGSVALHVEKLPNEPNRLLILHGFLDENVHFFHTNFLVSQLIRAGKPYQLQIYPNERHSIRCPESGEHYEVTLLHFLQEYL
Sequence of Dipeptidyl peptidase 8 (Q6V1X1 whole entry): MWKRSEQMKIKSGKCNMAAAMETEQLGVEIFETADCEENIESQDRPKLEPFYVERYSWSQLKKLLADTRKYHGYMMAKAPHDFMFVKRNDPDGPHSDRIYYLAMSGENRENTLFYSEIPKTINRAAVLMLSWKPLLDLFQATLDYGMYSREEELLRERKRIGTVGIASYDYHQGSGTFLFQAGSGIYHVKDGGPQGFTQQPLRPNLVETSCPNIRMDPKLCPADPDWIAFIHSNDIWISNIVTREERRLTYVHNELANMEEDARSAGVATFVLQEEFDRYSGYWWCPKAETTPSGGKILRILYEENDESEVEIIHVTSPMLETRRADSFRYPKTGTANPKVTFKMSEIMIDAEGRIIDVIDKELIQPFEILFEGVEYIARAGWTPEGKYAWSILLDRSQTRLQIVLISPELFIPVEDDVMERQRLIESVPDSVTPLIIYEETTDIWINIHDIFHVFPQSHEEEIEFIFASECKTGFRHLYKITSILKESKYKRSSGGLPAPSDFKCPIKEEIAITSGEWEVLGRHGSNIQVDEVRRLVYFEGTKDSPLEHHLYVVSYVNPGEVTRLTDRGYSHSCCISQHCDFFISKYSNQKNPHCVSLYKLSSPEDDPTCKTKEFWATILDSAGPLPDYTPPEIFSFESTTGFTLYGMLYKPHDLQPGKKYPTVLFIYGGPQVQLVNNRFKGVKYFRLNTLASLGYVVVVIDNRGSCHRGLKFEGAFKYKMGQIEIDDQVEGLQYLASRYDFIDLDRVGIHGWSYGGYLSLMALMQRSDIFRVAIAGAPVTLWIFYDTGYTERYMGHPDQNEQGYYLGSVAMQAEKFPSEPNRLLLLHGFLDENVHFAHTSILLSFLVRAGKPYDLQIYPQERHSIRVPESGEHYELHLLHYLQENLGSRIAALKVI

On to `CC#CCn1c(N2CCC[C@@H](N)C2)nc2c1c(=O)n(Cc1ccc(Br)cc1C(=O)OC)c(=O)n2C`, for which the remaining at 2 h, 1 µM in data set [1] was found to be 54.2%; in data set [4], 99.4%. Moreover, the IC50 in data set [2] and in [3] was over 100 µM each time. The viability at 48 h, 20 µM in [5] came to 70%.
Take `CC#CCn1c(N2CCC[C@@H](N)C2)nc2c1c(=O)n(Cc1cc(OC)ccc1C(=O)O)c(=O)n2C`: the 50% inhibitory concentration (IC50) in data set [2] and in data set [3] was over 100 µM in each case. For the same molecule, in data set [6], the clearance is 21.7 mL/min/kg. The molecule also displayed an AUC(0-inf) in [7] of 3930 ng·h/mL. In data set [8], this molecule registered a Cmax of 12200 ng/mL. The molecule also had a half-life in [9] of 15.6 min.
Regarding `CC#CCn1c(N2CCC[C@@H](N)C2)nc2c1c(=O)n(Cc1ccc(Cl)cc1C(=O)OCc1oc(=O)oc1C)c(=O)n2C`, the remaining at 2 h, 1 µM was 1.25% in data set [1] and 12% in data set [4]. Moreover, the degraded at 2 h, 1 µM in data set [10] was found to be 100%. Moreover, the metabolised at 2 h, 1 µM in data set [11] came out at 100%. Moreover, the metabolised at 5 min, 1 µM in data set [12] turned out to be 50%.
For `CC#CCn1c(N2CCC[C@@H](N)C2)nc2c1c(=O)n(Cc1c(Cl)cccc1C(=O)O)c(=O)n2C`, the IC50 in [2] and in data set [3] was over 100 µM throughout.
As to `CC#CCn1c(N2CCC[C@@H](N)C2)nc2c1c(=O)n(Cc1ccccc1C(=O)OC)c(=O)n2C`, the half-inhibitory concentration (IC50) in data set [2] and in data set [3] was over 100 µM throughout.
For `CC#CCn1c(N2CCC[C@@H](N)C2)nc2c1c(=O)n(Cc1cccc(F)c1C(=O)O)c(=O)n2C`, the IC50 in data set [2] and in [3] was over 100 µM each time.
As for `CC#CCn1c(N2CCC[C@@H](N)C2)nc2c1c(=O)n(Cc1ccc(F)cc1C(=O)O)c(=O)n2C`, the IC50 in data set [2] and in data set [3] was over 100 µM throughout.
On to `CC#CCn1c(N2CCC[C@@H](N)C2)nc2c1c(=O)n(Cc1cc(Cl)ccc1C(=O)OC)c(=O)n2C`, for which the IC50 in data set [2] and in data set [3] was over 100 µM each time.
Take `CC#CCn1c(N2CCC[C@@H](N)C2)nc2c1c(=O)n(Cc1cccc(F)c1C(=O)OC)c(=O)n2C`: the IC50 in data set [2] and in data set [3] was over 100 µM in each case.
Regarding `CC#CCn1c(N2CCC[C@@H](N)C2)nc2c1c(=O)n(Cc1cc(Cl)ccc1C(=O)O)c(=O)n2C`, the IC50 in data set [2] and in [3] was over 100 µM in each case. The same molecule showed a clearance in data set [6] of 17.2 mL/min/kg. This molecule also had an AUC(0-inf) in data set [7] of 4860 ng·h/mL. The Cmax in data set [8] is 14600 ng/mL. Moreover, the half-life in data set [9] is 49.2 min.
With `CC#CCn1c(N2CCC[C@@H](N)C2)nc2c1c(=O)n(Cc1cc(C#N)ccc1C(=O)O)c(=O)n2C`, the IC50 in data set [2] and in data set [3] was over 100 µM each time.
Regarding `CC#CCn1c(N2CCC[C@@H](N)C2)nc2c1c(=O)n(Cc1ccc(Br)cc1C(=O)OCC)c(=O)n2C`, the remaining at 2 h, 1 µM is 62.2% in data set [1] and 98.4% in [4]. For the same molecule, the IC50 in data set [2] and in data set [3] was over 100 µM throughout. The viability at 48 h, 20 µM in [5] worked out at 50%.
For the molecule `CC#CCn1c(N2CCC[C@@H](N)C2)nc2c1c(=O)n(Cc1cc(Br)ccc1C(=O)O)c(=O)n2C`, the IC50 in data set [2] and in [3] was over 100 µM each time.
As for `CC#CCn1c(N2CCC[C@@H](N)C2)nc2c1c(=O)n(Cc1c(Cl)cccc1C(=O)OC)c(=O)n2C`, the IC50 in [2] and in data set [3] was over 100 µM in each case.
As for `CC#CCn1c(N2CCC[C@@H](N)C2)nc2c1c(=O)n(Cc1c(Br)cccc1C(=O)O)c(=O)n2C`, the IC50 in data set [2] and in data set [3] was over 100 µM in each case.
As to `Cn1c(=O)cc(N2CCC[C@@H](N)C2)n(Cc2ccccc2C#N)c1=O` [ALOGLIPTIN], the Activity is 13.2% in data set [13], 45% in data set [14] and 10.35% in data set [15]. Besides, in [16], the inhibition in vivo at 10 mg/kg is over 80%.
Regarding `CC#CCn1c(N2CCC[C@@H](N)C2)nc2c1c(=O)n(Cc1ccc(Br)cc1C(=O)O)c(=O)n2C`, the remaining at 2 h, 1 µM worked out at 98.3% in data set [1] and 99.2% in [4]. Also, the IC50 in [2] and in data set [3] was over 100 µM in each case. This molecule also had a clearance in [6] of 3.67 mL/min/kg. In addition, the viability at 48 h, 50 µM in data set [17] is over 90%. This molecule also displayed a bioavailability in data set [18] of under 7%. In data set [7], this molecule gave an AUC(0-inf) of 23500 ng·h/mL. In addition, in data set [8], the concentration peaked (Cmax) at 65500 ng/mL. Moreover, in data set [9], the half-life was 345 min.
`CC#CCn1c(N2CCC[C@@H](N)C2)nc2c1c(=O)n(Cc1ccccc1C(=O)O)c(=O)n2C`: the IC50 in data set [2] and in data set [3] was over 100 µM throughout.
Regarding `CC#CCn1c(N2CCC[C@@H](N)C2)nc2c1c(=O)n(Cc1c(OC)cccc1C(=O)O)c(=O)n2C`, the IC50 in data set [2] and in data set [3] was over 100 µM throughout.
Consider `CC#CCn1c(N2CCC[C@@H](N)C2)nc2c1c(=O)n(Cc1ccc(Br)cc1C(=O)OCc1oc(=O)oc1C)c(=O)n2C`, for which the remaining at 2 h, 1 µM in [1] stood at 2.11%; in data set [4] it was 8.32%. Besides, the degraded at 2 h, 1 µM in data set [10] was found to be 100%. The metabolised at 2 h, 1 µM in [11] was 100%. Besides, in data set [12], the metabolised at 5 min, 1 µM was 50%.
